Assay results taken from paper doi:10.1101/2021.07.01.450682v1 (biorxiv, 2021).
Each block holds one molecule with its values, some of them ahead of it.

Tests used:
[1] = biological target: T1, PfLPL3 (lysophospholipase 3; recombinant hydrolase domain) (Plasmodium falciparum, UniProt Q8IK68); experiment: coupled fluorescent lysophospholipase assay; format: biochemical; settings: 16:0 LPC substrate; 50 mM Tris pH 8.0, 5 mM CaCl2; 20 μg enzyme in 200 μl
T1 sequence (Q8IK68 41-338): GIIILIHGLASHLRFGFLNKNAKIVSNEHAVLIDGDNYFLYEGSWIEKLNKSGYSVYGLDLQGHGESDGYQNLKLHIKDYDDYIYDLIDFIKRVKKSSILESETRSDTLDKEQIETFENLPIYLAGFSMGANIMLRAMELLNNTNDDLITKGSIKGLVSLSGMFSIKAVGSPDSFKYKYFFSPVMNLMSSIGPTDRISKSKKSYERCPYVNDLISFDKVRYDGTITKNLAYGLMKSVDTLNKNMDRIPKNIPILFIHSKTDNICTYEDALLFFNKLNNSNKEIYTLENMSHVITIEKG

[2] = substrate: CCCCCCCCCCCCCCCC(=O)OC[C@@H](O)COP(=O)([O-])OCC[N+](C)(C)C; experiment: purified protein; settings: 50 mM Tris pH 8.0, 5 mM CaCl2, 20 μg enzyme

- IC50 [1]: 1260 nM
Molecule: O=C(CCc1ccccc1)c1ccccc1OCC(O)CN1CCCCC1 (stereo not drawn) [PCB6, MMV009015]

- IC50 [1]: 920 nM
Molecule: CCOc1cc(Br)c(C(C)NC(=O)c2cccc(OC)c2)cc1OCC (stereo not drawn) [PCB7, MMV665796]

B1: PfLPL3 (lysophospholipase 3; recombinant hydrolase domain) (Plasmodium falciparum 3D7) (protein)
chain: T1 sequence (Q8IK68 41-338)
- Km [2]: 49.25 µM
